Like-named read-outs stand apart in the source and are kept apart here. Where a SMILES comes first, the peptide text is derived from it. Bridges are numbered along the chain shown (N, C = ends). Roman numbers before positions name the chains, in order. Where no end group is shown, it is not given here. [ ]: non-standard residue; d: D form.
Columns and labels:
[1] = tested on: breast cancer cells MCF-7; assay type: cell-based, human; conditions: 48 h
Protocol: (§1) The antiproliferative effect of the peptides was determined by using human cells, as previously described. Human cancer cells used in this experiment were ovarian cancer cells A2780 (obtained from ECACC), breast cancer cells MCF-7 (obtained from ATCC), liver cancer cells HepG2 (obtained from ATCC), lung cancer cells A549 (obtained from ATCC), pancreatic cancer cells MiaPaCa (obtained from ATCC), prostate cancer cells PC-3 (obtained from ATCC), and skin cancer cells MNT-1 (generous gift from the National Institute of Health (NIH). Normal human cells used were human lung fibroblasts IMR-90 (obtained from ATCC). All cells were cultured in DMEM which was supplemented with 10% fetal bovine serum (FBS), 1% L-glutamine, and 1% antibiotics (all from Invitrogen) at 37 °C in 5% CO2 incubator. For cytotoxicity assay, cells were maintained in 25 cm^2 flasks. Cells were separated from flasks using trypsin-EDTA solution (from Thermofisher) and counted using Malassez chamber and diluted in culture medium before seeding into 96-well cell-culture plates (Greiner bio-one, Paris, France) at approximately 3000 cells/well. Cells were then treated with increasing concentration of peptides diluted in culture medium (1:2 serial dilution, from 100 µM to 0 µM). After 48 h, medium was aspirated and number of viable cells was colorimetrically determined using resazurin-based assay following manufacturer’s instructions. The fluorescence intensity was measured using microplate reader (Biotek, Santa Clara, CA, USA, Synergy Mx) with an excitation wavelength of 530 nm and an emission wavelength of 590 nm. The fluorescence values were normalized by the controls (untreated cells) and expressed as percent of proliferation. The IC50 values of peptides (i.e., the concentrations causing 50% inhibition of cell proliferation) were determined using GraphPad® Prism 7 software.

liver cancer cells HepG2 = assay type: cell-based, human; conditions: 48 h
Protocol: as §1

lung cancer cells A549 = assay type: cell-based, human; conditions: 48 h
Protocol: as §1

[2] = tested on: ovarian cancer cells A2780; assay type: cell-based, human; conditions: 48 h
Protocol: as §1

[3] = tested on: pancreatic cancer cells MiaPaCa; assay type: cell-based, human; conditions: 48 h
Protocol: as §1

[4] = tested on: prostate cancer cells PC-3; assay type: cell-based, human; conditions: 48 h
Protocol: as §1

skin cancer cells MNT-1 = assay type: cell-based, human; conditions: 48 h
Protocol: as §1

human cancer cells = assay type: cell-based
Protocol: as §1

[5] = tested on: human lung fibroblasts IMR-90; assay type: cell-based; conditions: 48 h
Protocol: as §1

human red blood cells = test: Hemolysis assay; assay type: cell-based; conditions: for hemolysis: 100 µM; for estimated HC50 (concentration causing 50% of hemolysis): 1 h
Protocol: (§2) The ability of dendrimers and peptides to cause hemolysis was evaluated using human whole red blood cells. Briefly, fresh human erythrocytes (obtained from Divbio Science Europe, NL) were washed 3 times by centrifugation at 800× g for 5 min with sterile phosphate buffer saline (PBS, pH 7.4). The washed erythrocytes were resuspended in complete culture media (DMEM supplemented with 10% FBS) to a final concentration of 8%. Human erythrocytes were then added into sterile 96-well microplates (150 µL per well) and were exposed to increasing concentrations of peptides or dendrimers. After 1 h incubation at 37 °C, plates were centrifuged at 800× g for 5 min. Then, 100 µL of supernatant were carefully transferred to a new 96-well microplate and absorbance was measured at 450 nm using microplate reader. Triton-X100 at 0.1% (v/v) was used as positive control giving 100% hemolysis. The HC50 values of peptides and dendrimers (i.e., the concentration of compound causing 50% of hemolysis) were calculated using GraphPad® Prism 7 software.

[6] = Stability study at different temperatures (absorbance spectrum); conditions: room temperature, 35 °C, 40 °C, 50 °C and 60 °C
Protocol: (§3) The stability of dendrimers at different pH values and temperatures was also determined. For this, a 510 model digital pH meter (Oakton Eutech) with working electrode of glass material and a Ag/AgCl as reference electrode was used for the pH record. Dilute solutions of HCl and NaOH were added to adjust the pH of the solution from 2 to 12. Similarly, stability of monomer [G10a]-SHa and its three dendrimers was checked by heating the peptide dendrimers on different temperature ranges, i.e., room temperature, 35 °C, 40 °C, 50 °C and 60 °C.

[7] = Stability study at different pH; conditions: pH 2 to pH 14
Protocol: as §3, with “Dilute solutions of HCl and NaOH were added to adjust the pH of the solution from 2 to 12.” left out

[8] = tested on: Acinetobacter baumannii (DSM 30007); assay type: cell-based; conditions: A. baumannii (DSM 30007), 18–24 h, aerobic
Protocol: (§4) Experiments were performed in triplicate (n = 3).

[9] = tested on: Bacillus subtilis (ATCC 6633); assay type: cell-based; conditions: B. subtilis (ATCC 6633), 18–24 h, aerobic
Protocol: as §4

[10] = tested on: Enterobacter cloacae (DSM 30054); assay type: cell-based; conditions: E. cloacae (DSM 30054), 18–24 h, aerobic
Protocol: as §4

[11] = tested on: Enterococcus faecalis (DSM 2570); assay type: cell-based; conditions: E. faecalis (DSM 2570), 18–24 h, micro-aerobic
Protocol: as §4

[12] = tested on: Enterococcus faecium (DSM 20477); assay type: cell-based; conditions: E. faecium (DSM 20477), 18–24 h, micro-aerobic
Protocol: as §4

[13] = tested on: Escherichia coli (ATCC 8739); assay type: cell-based; conditions: E. coli (ATCC 8739), 18–24 h, aerobic
Protocol: as §4

[14] = tested on: Helicobacter pylori (ATCC 43504); assay type: cell-based; conditions: H. pylori (ATCC 43504), 18–24 h, micro-aerobic
Protocol: as §4

[15] = tested on: Klebsiella pneumoniae (DSM 26371); assay type: cell-based; conditions: K. pneumoniae (DSM 26371), 18–24 h
Protocol: as §4

[16] = tested on: Pseudomonas aeruginosa (ATCC 9027); assay type: cell-based; conditions: P. aeruginosa (ATCC 9027), 18–24 h, aerobic
Protocol: as §4

[17] = tested on: Staphylococcus aureus (ATCC 6538); assay type: cell-based; conditions: S. aureus (ATCC 6538), 18–24 h, aerobic
Protocol: as §4

Hemolysis assay = assay type: cell-based, human; conditions: human; at 100 µM, 1 h, 37 °C, relative to Triton X-100 0.1%
Protocol: as §2

[18] = Dynamic light scattering (zetasizer); assay type: physicochemical
Protocol: The dendrimeric solutions of peptides were transferred into transparent cuvette with care to remove bubble formation. The sample was then transferred to the cell holder and study was performed at 90° scattering angle at room temperature. The standard viscosity and refractive index were kept constant and kept at 1.0, 1.33 and 80.4 mPa, respectively.

Compound	IC50 [1] [µM]	IC50 (liver cancer cells HepG2) [µM]	IC50 (lung cancer cells A549) [µM]	IC50 [2] [µM]	IC50 [3] [µM]	IC50 [4] [µM]	IC50 (skin cancer cells MNT-1) [µM]	IC50 (human cancer cells; 48 h) [µM]	IC50 [5] [µM]	hemolytic activity (in words) (human red blood cells)	hemolysis (human red blood cells)	estimated HC50 (concentration causing 50% of hemolysis) (human red blood cells; red cells of human) [µM]	stability at different temperatures [6]	stability at different pH [7]	minimal inhibitory concentration (MIC) [8] [µM]	minimal inhibitory concentration (MIC) [13] [µM]	minimal inhibitory concentration (MIC) [14] [µM]	minimal inhibitory concentration (MIC) [17] [µM]	also measured
CC[C@H](C)[C@H](NC(=O)CNC(=O)[C@H](CO)NC(=O)[C@H](CC(C)C)NC(=O)[C@@H](N)Cc1ccccc1)C(=O)N[C@H](C(=O)NCC(=O)N[C@@H](CCSC)C(=O)N[C@@H](CC(C)C)C(=O)N[C@H](C)C(=O)N[C@@H](CCCCN)C(=O)N[C@@H](CC(C)C)C(=O)N[C@@H](Cc1ccccc1)C(=O)NCCCC[C@H](NC(=O)[C@H](Cc1ccccc1)NC(=O)[C@H](CC(C)C)NC(=O)[C@H](CCCCN)NC(=O)[C@@H](C)NC(=O)[C@H](CC(C)C)NC(=O)[C@H](CCSC)NC(=O)CNC(=O)[C@@H](NC(=O)[C@@H](NC(=O)CNC(=O)[C@H](CO)NC(=O)[C@H](CC(C)C)NC(=O)[C@@H](N)Cc1ccccc1)[C@@H](C)CC)C(C)C)C(N)=O)C(C)C [[G10a]2-SHa] (HELM PEPTIDE1{F.L.S.G.I.V.G.M.L.[dA].K.L.F.K.[am]}|PEPTIDE2{F.L.S.G.I.V.G.M.L.[dA].K.L.F}$PEPTIDE1,PEPTIDE2,14:R3-13:R2$$$V2.0)	5.69 ± 1.46	14.3 ± 1.37	3.79 ± 1.61	4.42 ± 0.06	8.71 ± 0.35	6.31 ± 0.66	4.72 ± 0.36	6.85 ± 3.66	22.3 ± 0.4	high hemolytic activity	complete hemolysis	11.55 ± 0.38	considerable stability up to 60 °C	significantly stable at pH values up to 10 and unstable at high pH values of 12 and 14	–	–	–	–	–
FLSGIVGMLGKLF-NH2 [Temporin SHa, H-Phe^1-Leu^2-Ser^3-Gly^4-Ile^5-Val^6-Gly^7-Met^8-Leu^9-Gly^10-Lys^11-Leu^12-Phe^13-NH2]	–	–	–	–	–	–	–	–	–	–	–	–	–	–	6.25	50	3.12	3.12	minimal inhibitory concentration (MIC) [9]: 1.56 µM; minimal inhibitory concentration (MIC) [10]: 50 µM; minimal inhibitory concentration (MIC) [11]: 12.5 µM; minimal inhibitory concentration (MIC) [12]: 6.25 µM; minimal inhibitory concentration (MIC) [15]: 50 µM; minimal inhibitory concentration (MIC) [16]: 50 µM; IC50 ([1]; Breast Cancer (MCF-7), read-out: IC50 (cell proliferation)): 20.4 ± 5.64 µM; IC50 (liver cancer cells HepG2; Liver Cancer (HepG-2), read-out: IC50 (cell proliferation)): > 100 µM; IC50 (lung cancer cells A549; Lung Cancer (A549), read-out: IC50 (cell proliferation)): > 100 µM; IC50 ([2]; Ovarian Cancer (A2780), read-out: IC50 (cell proliferation)): > 100 µM; IC50 ([3]; Pancreatic Cancer (MiaPaCa), read-out: IC50 (cell proliferation)): > 100 µM; IC50 ([4]; Prostate Cancer (PC-3), read-out: IC50 (cell proliferation)): > 100 µM; IC50 (skin cancer cells MNT-1; Skin Cancer (MNT-1), read-out: IC50 (cell proliferation)): > 100 µM; IC50 (human cancer cells; all cells except breast cancer MCF-7, up to 100 µM, read-out: IC50 on the human cells tested other than MCF-7): > 100 µM; IC50 ([5]; Human Normal Fibroblast (IMR-90), read-out: IC50 (cell proliferation)): > 100 µM; hemolysis at 1 h, 100 µM (Hemolysis assay): 24.5 ± 1.88%; estimated HC50 (concentration causing 50% of hemolysis) (human red blood cells; human erythrocytes, 37 °C): 266.20 ± 41.27 µM
I: H-FLSGIVGML[dA]KLFKK-NH2 / II: H-FLSGIVGML[dA]KLF / III: H-FLSGIVGML[dA]KLF (amide I:14-III:C, I:15-II:C) [[G10a]3-SHa]	3.77 ± 0.12	5.49 ± 0.37	3.74 ± 3.46	2.31 ± 0.08	6.94 ± 0.27	1.84 ± 0.17	2.24 ± 0.05	3.76 ± 1.87	13.9 ± 0.42	high hemolytic activity	complete hemolysis	10.46 ± 0.36	considerable stability up to 60 °C	significantly stable at pH values up to 10 and unstable at high pH values of 12 and 14	3.12	25	25	6.25	times more active than [G10a]-SHa at inhibiting multiplying cancer cells (human cancer cells; from mean IC50 on human cancer cells): 4.8 times; Pdi Values (polydispersity index) ([18]; DLS): 0.462; average hydrodynamic diameter ([18]; DLS): about 46.13 nm; Z-Average ([18]; DLS, room temperature): 46.13 nm·days; Zeta Potential ([18]; zetasizer): −71.2 mV

Source: publication PMC9221442, “Design, Synthesis and Characterization of [G10a]-Temporin SHa Dendrimers as Dual Inhibitors of Cancer and Pathogenic Microbes” (Biomolecules, 2022)
